These results are taken from BindingDB's records for patent US11708326 (Chemocentryx, 2023).

A value given as a limit tells only on which side of the number the result lay.

This test has as its target Programmed cell death 1 ligand 1 (Homo sapiens, UniProt Q9NZQ7). The test can be described thus: Enzyme-Linked Immunosorbent Assay ELISA. The protocol: 96 Well plates were coated with 1 μg/mL of human PD-L1 (obtained from R&D) in PBS overnight at 4° C. The wells were then blocked with 2% BSA in PBS (W/V) with 0.05% TWEEN-20 for 1 hour at 37° C. The plates were washed 3 times with PBS/0.05% TWEEN-20 and the compounds were serial diluted (1:5) in dilution medium and added to the ELISA plates. Human PD-1 and biotin 0.3 μg/mL (ACRO Biosystems) were added and incubated for 1 hour at 37° C. then washed 3 times with PBS/0.05% TWEEN-20. A second block was performed with 2% BSA in PBS (W/V)/0.05% TWEEN-20 for 10 min at 37° C. and was washed 3 times with PBS/0.05% TWEEN-20. Streptavidin-HRP was added for 1 hour at 37° C. then washed 3 times with PBS/0.05% TWEEN-20. TMB substrate was added and reacted for 20 min at 37° C. A stop solution (2 N aqueous H2SO4) was added. The absorbance was read at 450 nm using a micro-plate spectrophotometer.
Background: ELISA stands for enzyme-linked immunosorbent assay.

Sequence of Programmed cell death 1 ligand 1 (Q9NZQ7 whole entry): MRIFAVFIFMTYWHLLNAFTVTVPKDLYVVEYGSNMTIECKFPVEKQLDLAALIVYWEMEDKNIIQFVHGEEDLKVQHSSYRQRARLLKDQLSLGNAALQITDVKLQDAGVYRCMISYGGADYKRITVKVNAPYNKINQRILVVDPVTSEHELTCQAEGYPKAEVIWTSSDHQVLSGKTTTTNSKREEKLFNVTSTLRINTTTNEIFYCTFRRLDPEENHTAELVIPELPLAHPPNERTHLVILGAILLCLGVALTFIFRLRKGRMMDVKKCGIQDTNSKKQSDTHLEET

With `Cc1c(OCCCN2[C@@H](C)CC[C@@H]2C)cccc1-c1cccc2c1CC[C@@H]2Oc1cc(OCc2cc(C#N)cc(C#N)c2)c(CN[C@H]2CCC(=O)NC2)cc1Cl` [US11708326, Compound TABLE 1.335], the IC50 is less than 5 nM. Take `CCOc1cc(NC2CCc3c(-c4cccc(OCCCN5CCC(F)CC5)c4C)cccc32)c(Cl)cc1CN[C@@H](CO)C(=O)O` (stereo not given in full) [US11708326, Compound TABLE 1.117]: the IC50 entry was “in the range around 252 nM”.

With `N#Cc1cncc(COc2cc(O[C@H]3CCc4c(-c5cccc(OCCCN6CC(O)C6)c5Cl)cccc43)c(Cl)cc2CN2CCCC3(C2)NC(=O)NC3=O)c1` (stereo not given in full) [US11708326, Compound TABLE 1.137], the 50% inhibitory concentration (IC50) was less than 5 nM. For `Cc1c(OCCCN2CCC2(C)C)cccc1-c1cccc2c1CC[C@@H]2Oc1cc(OCc2cc(C#N)cc(C#N)c2)c(CN[C@H]2CCC(=O)NC2)cc1Cl` [US11708326, Compound TABLE 1.323] the value was less than 5 nM; for `N#Cc1cncc(COc2cc(O[C@H]3CCc4c(-c5cccc(OCCCN6CC7(CC(O)C7)C6)c5Cl)cccc43)c(Cl)cc2CNC[C@@H]2CCC(=O)N2)c1` [US11708326, Compound TABLE 1.164], less than 5 nM.

As for `CCOc1cc(O[C@H]2CCc3c(-c4cccc(OCCCN5CCC5(C)C)c4C)cccc32)c(Cl)cc1CNCCC(=O)OC(C)C` [US11708326, Compound TABLE 1.393], the 50% inhibitory concentration (IC50) result was “in the range around 252 nM”.

Consider `Cc1c(OCCCN2CCCC2C(C)C)cccc1-c1cccc2c1CC[C@@H]2Oc1cc(OCc2cc(C#N)cc(C#N)c2)c(CN[C@H]2CCC(=O)NC2)cc1Cl` (stereo not given in full) [US11708326, Compound TABLE 1.305], for which the IC50 result was “in the range around 252 nM”. Consider `Cc1c(OCCCN2CCC(C)CC2)cccc1-c1cccc2c1CC[C@@H]2Oc1cc(OCc2cc(C#N)cc(C#N)c2)c(CN[C@H]2CCC(=O)NC2)cc1Cl` [US11708326, Compound TABLE 1.296], for which the IC50 result is “in the range around 252 nM”.

Take `Cc1c(OCCCN2[C@H](C)CC[C@@H]2C)cccc1-c1cccc2c1CC[C@@H]2Oc1cc(OCc2cc(C#N)cc(C#N)c2)c(CN[C@H]2CCC(=O)NC2)cc1Cl` [US11708326, Compound TABLE 1.333]: the IC50 was less than 5 nM. The compound `N#Cc1cncc(COc2cc(O[C@H]3CCc4c(-c5cccc(OCCCN6CC7(CC(O)C7)C6)c5Cl)cccc43)c(Cl)cc2CNC[C@H]2CCC(=O)N2)c1` [US11708326, Compound TABLE 1.165] yielded an IC50 of less than 5 nM. On to `Cc1c(OCCCN2CC[C@H](O)[C@H](F)C2)cccc1-c1cccc2c1CC[C@@H]2Oc1cc(OCc2cncc(C#N)c2)c(CN[C@H](C(=O)O)[C@@H](C)O)cc1Cl` [US11708326, Compound TABLE 1.34], for which the IC50 is less than 5 nM. `Cc1c(OCCCN2[C@H](C)CC[C@H]2C)cccc1-c1cccc2c1CC[C@@H]2Oc1cc(OCc2cc(C#N)cc(C#N)c2)c(CN[C@H]2CCC(=O)NC2)cc1Cl` [US11708326, Compound TABLE 1.334] had an IC50 of less than 5 nM. The compound `N#Cc1cncc(COc2cc(O[C@H]3CCc4c(-c5cccc(OCCCN6CC(F)C6)c5Cl)cccc43)c(Cl)cc2CN[C@@H]2CCCC[C@@H]2O)c1` [US11708326, Compound TABLE 1.92] showed a 50% inhibitory concentration (IC50) of less than 5 nM. As for `Cc1c(OCCCN2CC[C@@H](O)[C@H](F)C2)cccc1-c1cccc2c1CC[C@@H]2Oc1cc(OCc2cncc(C#N)c2)c(CN[C@H](C(=O)O)[C@@H](C)O)cc1Cl` [US11708326, Compound TABLE 1.31], the IC50 result is “in the range around 252 nM”. For the compound `Cc1c(OCCCN2CCCC[C@@H]2C)cccc1-c1cccc2c1CC[C@@H]2Oc1cc(OCc2cc(C#N)cc(C#N)c2)c(CN[C@H]2CCC(=O)NC2)cc1Cl` [US11708326, Compound TABLE 1.315], the IC50 was less than 5 nM.

Turning to `CCOc1cc(O[C@H]2CCc3c(-c4cccc(OCCCN5CCC5(C)C)c4C)cccc32)c(Cl)cc1CN(C)CC(=O)O` [US11708326, Compound TABLE 1.378], the IC50 result was “in the range around 252 nM”. Consider `CC(CO)(NCc1cc(Cl)c(O[C@H]2CCc3c(-c4cccc(OCCCN5CCCCC5)c4Cl)cccc32)cc1OCc1cncc(C#N)c1)C(=O)O` (stereo not given in full) [US11708326, Compound TABLE 1.130], for which the IC50 is less than 5 nM. `Cc1c(OCCCN2C(C)CCC2C)cccc1-c1cccc2c1CC[C@@H]2Oc1cc(OCc2cc(C#N)cc(C#N)c2)c(CN[C@H]2CCC(=O)NC2)cc1Cl` (stereo not given in full) [US11708326, Compound TABLE 1.304] gave an IC50 of less than 5 nM. On to `Cc1c(OCCCN2CCC(F)(F)CC2)cccc1-c1cccc2c1CC[C@@H]2Oc1cc(OCc2cncc(C#N)c2)c(CN[C@H](C(=O)O)[C@@H](C)O)cc1Cl` [US11708326, Compound TABLE 1.18], for which the IC50 entry was “in the range around 252 nM”. As to `Cc1c(OCCCN2[C@H](C)CCC[C@@H]2C)cccc1-c1cccc2c1CC[C@@H]2Oc1cc(OCc2cc(C#N)cc(C#N)c2)c(CN[C@H]2CCC(=O)NC2)cc1Cl` [US11708326, Compound TABLE 1.298], the IC50 entry was “in the range around 252 nM”.

What is called IC50 is the midpoint of a concentration-inhibition curve. A lower IC50 goes with higher potency.
